According to patent US9121067B2, “Predictive marker for EGFR inhibitor treatment” (Hoffmann-La Roche Inc., priority 2007, dated 2015):

What was measured:
[1] = patients with cancer receiving 150 mg/day; 500 ng/ml is the average plasma concentration targeted for clinical efficacy; cited from earlier work
[2] = system: NSCLC patients for whom standard therapy for advanced disease has failed; settings: single agent versus placebo; cited from earlier work
[3] = system: patients with advanced NSCLC following failure of at least one prior chemotherapy regimen; assay: open-label Phase II predictive marker study, response assessment by RECIST; type: in vivo, human
Protocol: Based on the experience from the BR.21 study, benefiting population was defined as either having objective response, or disease stabilization for 12 weeks. Clinical and microarray datasets were analyzed according to a pre-defined statistical plan.
This was an open-label, predictive marker identification Phase II study. The study was conducted in approximately 26 sites in about 12 countries. 264 patients with advanced NSCLC following failure of at least one prior chemotherapy regimen were enrolled over a 12 month period. […] Dose reductions were permitted based on tolerability to drug therapy. Clinical and laboratory parameters were assessed to evaluate disease control and toxicity. Treatment continued until disease progression, unacceptable toxicity or death. The study design is depicted in FIG. 1.
The RECIST (Uni-dimensional Tumour Measurement) criteria were used to evaluate response.
To be assigned a status of CR or PR, changes in tumour measurements must be confirmed by repeated assessments at least 4 weeks apart at any time during the treatment period.
In the case of SD, follow-up measurements must have met the SD criteria at least once after study entry at a minimum interval of 6 weeks.
In the case of maintained SD, follow-up measurements must have met the SD criteria at least once after study entry with maintenance duration of at least 12 weeks.

[4] = 75 patients with qRT-PCR results
[5] = n = 102, benefit = objective response or disease stabilization for >=12 weeks
[6] = patients included in microarray analysis n = 102, oral 150 mg/day

**Q.** Which results are given for C#Cc1cccc(Nc2ncnc3cc(OCCOC)c(OCCOC)cc23)c1 [Tarceva, erlotinib]?
**A.** drug levels in plasma [1]: > 500 ng/mL; survival [2]: significantly prolongs and improves the survival; patients with PD [3, 4]: 52%; patients with SD [3, 4]: 31%; patients with partial response (PR) [3, 4]: 5%; Clinical Benefit NO, n (%) [3, 5]: 81 (79.4%); Clinical Benefit YES, n (%) [3, 5]: 21 (20.6%); Best Response PD, n (%) [3, 6]: 49 (48.0%); Best Response PR, n (%) [3, 6]: 6 (5.9%); Best Response SD, n (%) [3, 6]: 31 (30.4%)
